Measurements from patent US11540518B2, “Fungicidal oxadiazoles” (FMC Corporation, priority 2017, dated 2023).

What was measured:
Type in all cases: in vivo
[1] = tested on: Phakopsora pachyrhizi; test: Test A: Asian soybean rust control on soybean seedlings; conditions: sprayed to run-off on soybean seedlings, inoculated the following day, 100 = 100% disease control, 0 = no control
Excerpt: General protocol for preparing test suspensions for Tests A-C: the test compounds were first dissolved in acetone in an amount equal to 3% of the final volume and then suspended at the desired concentration (in ppm) in acetone and purified water (50/50 mix by volume) containing 250 ppm of the surfactant PEG400 (polyhydric alcohol esters). The resulting test suspensions were then used in Tests A-C.
The test solution was sprayed to the point of run-off on soybean seedlings. The following day the seedlings were inoculated with a spore suspension of Phakopsora pachyrhizi (the causal agent of Asian soybean rust) and incubated in a saturated atmosphere at 22° C. for 24 h, and then moved to a growth chamber at 22° C. for 8 days, after which time visual disease ratings were made.
Results for Tests A-C are given in Table A. In the Table, a rating of 100 indicates 100% disease control and a rating of 0 indicates no disease control (relative to the controls). A dash (-) indicates the compound was not tested.

[2] = tested on: Puccinia recondita f. sp. tritici; test: Test C: wheat leaf rust control on wheat seedlings; conditions: sprayed to run-off on wheat seedlings, inoculated the following day, 100 = 100% disease control, 0 = no control
Excerpt: General protocol for preparing test suspensions for Tests A-C: the test compounds were first dissolved in acetone in an amount equal to 3% of the final volume and then suspended at the desired concentration (in ppm) in acetone and purified water (50/50 mix by volume) containing 250 ppm of the surfactant PEG400 (polyhydric alcohol esters). The resulting test suspensions were then used in Tests A-C. The test solution was sprayed to the point of run-off on wheat seedlings. The following day the seedlings were inoculated with a spore suspension of Puccinia recondita f. sp. tritici (the causal agent of wheat leaf rust) and incubated in a saturated atmosphere at 20° C. for 24 h, and then moved to a growth chamber at 20° C. for 6 days, after which time disease ratings were made. Results for Tests A-C are given in Table A. In the Table, a rating of 100 indicates 100% disease control and a rating of 0 indicates no disease control (relative to the controls). A dash (-) indicates the compound was not tested.

[3] = tested on: Zymoseptoria tritici; test: Test B: wheat leaf blotch control on wheat seedlings; conditions: sprayed to run-off on wheat seedlings, inoculated the following day, 100 = 100% disease control, 0 = no control
Excerpt: General protocol for preparing test suspensions for Tests A-C: the test compounds were first dissolved in acetone in an amount equal to 3% of the final volume and then suspended at the desired concentration (in ppm) in acetone and purified water (50/50 mix by volume) containing 250 ppm of the surfactant PEG400 (polyhydric alcohol esters). The resulting test suspensions were then used in Tests A-C. The test solution was sprayed to the point of run-off on wheat seedlings. The following day the seedlings were inoculated with a spore suspension of Zymoseptoria tritici (the causal agent of wheat leaf blotch) and incubated in a saturated atmosphere at 24° C. for 48 h, and then moved to a growth chamber at 20° C. for 17 days, after which time disease ratings were made. Results for Tests A-C are given in Table A. In the Table, a rating of 100 indicates 100% disease control and a rating of 0 indicates no disease control (relative to the controls). A dash (-) indicates the compound was not tested.

[4] = 250 ppm (incl. values marked * = tested at 250 ppm)

SMILES: O=C(NCc1ccccc1)OCc1ccc(-c2noc(C(F)(F)F)n2)cc1 [Compound 13]
- Test A disease control rating ([1]; 260 ppm): 100%
- Test C disease control rating ([2]; 260 ppm): 100%
- Test B disease control rating ([3]; 260 ppm): 36%

SMILES: CCCCNC(=O)OCc1ccc(-c2noc(C(F)(F)F)n2)cc1 [Compound 15]
- Test A disease control rating ([1]; 265 ppm): 100%
- Test C disease control rating ([2]; 265 ppm): 100%
- Test B disease control rating ([3]; 265 ppm): 92%

SMILES: CC(C)(C)NC(=O)OCc1ccc(-c2noc(C(F)(F)F)n2)cc1 [Compound 16]
- Test A disease control rating ([1]; 255 ppm): 100%
- Test C disease control rating ([2]; 255 ppm): 100%
- Test B disease control rating ([3]; 255 ppm): 19%

SMILES: NC(=O)OCc1ccc(-c2noc(C(F)(F)F)n2)cc1 [Compound 17, [4-[5-(trifluoromethyl)-1,2,4-oxadiazol-3-yl]phenyl]methyl carbamate]
- pest or weed control at 260 ppm ([1]; Phakopsora pachyrhizi, 216 h, 260 ppm, read-out: Test A disease control rating): 100%
- pest or weed control at 260 ppm ([2]; Puccinia recondita, 168 h, 260 ppm, read-out: Test C disease control rating): 100%
- Test B disease control rating ([3]; 260 ppm): 92%

SMILES: CCNC(=O)OCCCn1cc(-c2noc(C(F)(F)F)n2)cn1 [Compound 18]
- pest or weed control at 50 ppm ([1]; Phakopsora pachyrhizi, 216 h, 50 ppm, read-out: Test A disease control rating): 38%
- pest or weed control at 50 ppm ([2]; Puccinia recondita, 168 h, 50 ppm, read-out: Test C disease control rating): 0%
- Test B disease control rating [3, 4]: 50* %

SMILES: C#CCN(C)C(=O)OCc1ccc(-c2noc(C(F)(F)F)n2)cc1 [Compound 32]
- Test A disease control rating ([1]; 10 ppm): 100%
- Test C disease control rating ([2]; 10 ppm): 68%
- Test B disease control rating [3, 4]: 0* %

SMILES: C#CCCNC(=O)OCc1ccc(-c2noc(C(F)(F)F)n2)cc1 [Compound 33]
- Test A disease control rating ([1]; 10 ppm): 100%
- Test C disease control rating ([2]; 10 ppm): 100%
- Test B disease control rating [3, 4]: 0* %

SMILES: CNC(=O)OCc1ccc(-c2noc(C(F)(F)F)n2)s1 [Compound 38]
- Test A disease control rating ([1]; 10 ppm): 94%
- Test C disease control rating ([2]; 10 ppm): 96%
- Test B disease control rating [3, 4]: 80* %

SMILES: CCNC(=O)OCc1ccc(-c2noc(C(F)(F)F)n2)s1 [Compound 39]
- Test A disease control rating ([1]; 10 ppm): 96%
- Test C disease control rating ([2]; 10 ppm): 95%
- Test B disease control rating [3, 4]: 93* %

SMILES: CNC(=O)OCCc1ccc(-c2noc(C(F)(F)F)n2)cc1 [Compound 42]
- Test A disease control rating ([1]; 10 ppm): 100%
- Test C disease control rating ([2]; 10 ppm): 99%
- Test B disease control rating ([3]; 10 ppm): 0%

SMILES: CCNC(=O)OCCc1ccc(-c2noc(C(F)(F)F)n2)cc1 [Compound 43, 2-[4-[5-(trifluoromethyl)-1,2,4-oxadiazol-3-yl]phenyl]ethyl N-ethylcarbamate]
- pest or weed control at 10 ppm ([1]; Phakopsora pachyrhizi, 216 h, 10 ppm, read-out: Test A disease control rating): 100%
- pest or weed control at 10 ppm ([2]; Puccinia recondita, 168 h, 10 ppm, read-out: Test C disease control rating): 97%
- Test B disease control rating [3, 4]: 0* %

SMILES: CCCNC(=O)OCc1ccc(-c2noc(C(F)(F)F)n2)s1 [Compound 46]
- Test A disease control rating ([1]; 10 ppm): 99%
- Test C disease control rating ([2]; 10 ppm): 97%
- Test B disease control rating [3, 4]: 97* %

SMILES: CC(OC(=O)N(C)C)c1ccc(-c2noc(C(F)(F)F)n2)cc1 (stereo not drawn) [Compound 72]
- Test A disease control rating ([1]; 10 ppm): 100%
- Test C disease control rating ([2]; 10 ppm): 55%
- Test B disease control rating [3, 4]: 0* %

SMILES: CCNC(=O)OC(COC)Cc1ccc(-c2noc(C(F)(F)F)n2)cc1 (stereo not drawn) [Compound 75]
- Test A disease control rating ([1]; 10 ppm): 100%
- Test C disease control rating ([2]; 10 ppm): 91%
- Test B disease control rating [3, 4]: 97* %

SMILES: C#CCNC(=O)OC(C)c1ccc(-c2noc(C(F)(F)F)n2)cc1 (stereo not drawn) [Compound 76]
- Test A disease control rating ([1]; 10 ppm): 100%
- Test C disease control rating ([2]; 10 ppm): 99%
- Test B disease control rating [3, 4]: 0* %

SMILES: CC(OC(=O)NC1CC1)c1ccc(-c2noc(C(F)(F)F)n2)cc1 (stereo not drawn) [Compound 77]
- Test A disease control rating ([1]; 10 ppm): 100%
- Test C disease control rating ([2]; 10 ppm): 92%
- Test B disease control rating ([3]; 10 ppm): 0%

SMILES: CCOC(=O)NC(=O)OCCc1ccc(-c2noc(C(F)(F)F)n2)cc1 [Compound 78]
- Test A disease control rating ([1]; 10 ppm): 100%
- Test C disease control rating ([2]; 10 ppm): 91%
- Test B disease control rating ([3]; 10 ppm): 95%

SMILES: CCOC(=O)NC(=O)OCc1ccc(-c2noc(C(F)(F)F)n2)cc1 [Compound 79]
- Test A disease control rating ([1]; 10 ppm): 100%
- Test C disease control rating ([2]; 10 ppm): 97%
- Test B disease control rating ([3]; 10 ppm): 98%

SMILES: NC(=O)OCc1ccc(-c2noc(C(F)(F)F)n2)cc1F [Compound 85]
- Test A disease control rating ([1]; 250 ppm): 100%
- Test C disease control rating ([2]; 250 ppm): 100%
- Test B disease control rating [3, 4]: 98%

SMILES: NC(=O)OCc1ccc(-c2noc(C(F)(F)F)n2)cc1Cl [Compound 86]
- Test A disease control rating ([1]; 250 ppm): 100%
- Test C disease control rating ([2]; 250 ppm): 100%
- Test B disease control rating [3, 4]: 94%

SMILES: CC(C)(OC(N)=O)c1ccc(-c2noc(C(F)(F)F)n2)cc1 [Compound 87]
- Test A disease control rating ([1]; 250 ppm): 100%
- Test C disease control rating ([2]; 250 ppm): 100%
- Test B disease control rating [3, 4]: 99%

SMILES: NC(=O)OCc1cccc(-c2noc(C(F)(F)F)n2)c1 [Compound 93]
- Test A disease control rating ([1]; 250 ppm): 100%
- Test C disease control rating ([2]; 250 ppm): 100%
- Test B disease control rating [3, 4]: 97%

SMILES: CNC(=O)OCc1cccc(-c2noc(C(F)(F)F)n2)c1 [Compound 94]
- Test A disease control rating ([1]; 250 ppm): 69%
- Test C disease control rating ([2]; 250 ppm): 100%
- Test B disease control rating [3, 4]: 1%

SMILES: CCNC(=O)OCc1cccc(-c2noc(C(F)(F)F)n2)c1 [Compound 95]
- Test A disease control rating ([1]; 250 ppm): 99%
- Test C disease control rating ([2]; 250 ppm): 100%
- Test B disease control rating [3, 4]: 3%

SMILES: C#CCNC(=O)OCc1cccc(-c2noc(C(F)(F)F)n2)c1 [Compound 96]
- Test A disease control rating ([1]; 250 ppm): 100%
- Test C disease control rating ([2]; 250 ppm): 100%
- Test B disease control rating [3, 4]: 64%

SMILES: C=CCNC(=O)OCc1cccc(-c2noc(C(F)(F)F)n2)c1 [Compound 97]
- Test A disease control rating ([1]; 250 ppm): 100%
- Test C disease control rating ([2]; 250 ppm): 100%
- Test B disease control rating [3, 4]: 52%

SMILES: C=C(C)CNC(=O)OCc1cccc(-c2noc(C(F)(F)F)n2)c1 [Compound 98]
- Test A disease control rating ([1]; 250 ppm): 100%
- Test C disease control rating ([2]; 250 ppm): 100%
- Test B disease control rating [3, 4]: 3%

SMILES: CN(C)C(=O)OCc1cccc(-c2noc(C(F)(F)F)n2)c1 [Compound 99]
- Test A disease control rating ([1]; 250 ppm): 0%
- Test C disease control rating ([2]; 250 ppm): 55%
- Test B disease control rating [3, 4]: 0%

SMILES: Cc1ccc(C(OC(=O)n2ccnc2)c2ccc(-c3noc(C(F)(F)F)n3)cc2)cc1 (stereo not drawn) [Compound 100]
- Test A disease control rating ([1]; 250 ppm): 100%
- Test C disease control rating ([2]; 250 ppm): 97%
- Test B disease control rating [3, 4]: 98%

SMILES: NC(=O)OC(c1ccc(-c2noc(C(F)(F)F)n2)cc1)c1cccc(Cl)c1 (stereo not drawn) [Compound 101]
- Test A disease control rating ([1]; 250 ppm): 100%
- Test C disease control rating ([2]; 250 ppm): 99%
- Test B disease control rating [3, 4]: 90%

SMILES: CNC(=O)OC(c1ccc(-c2noc(C(F)(F)F)n2)cc1)c1cccc(Cl)c1 (stereo not drawn) [Compound 102]
- Test A disease control rating ([1]; 250 ppm): 100%
- Test C disease control rating ([2]; 250 ppm): 90%
- Test B disease control rating [3, 4]: 96%

SMILES: CCNC(=O)OC(c1ccc(-c2noc(C(F)(F)F)n2)cc1)c1cccc(Cl)c1 (stereo not drawn) [Compound 103]
- Test A disease control rating ([1]; 250 ppm): 100%
- Test C disease control rating ([2]; 250 ppm): 86%
- Test B disease control rating [3, 4]: 20%
